Measured values: PubChem BioAssay (NCI)
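Values below derive from 48-hour exposures of cells grown in 96-well plates, with endpoints linearly interpolated between the two concentrations bracketing the appropriate inhibition level. TGI: total growth inhibition.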

How the values were obtained:
Experiment in all cases: DTP human tumour cell line panel, 48 h
786-0 renal = tested on: 786-0 renal
A498 renal = tested on: A498 renal
A549 NSCLC = tested on: A549 NSCLC
ACHN renal = tested on: ACHN renal
BT-549 breast = tested on: BT-549 breast
CAKI-1 renal = tested on: CAKI-1 renal
CCRF-CEM leukemia = tested on: CCRF-CEM leukemia
COLO 205 colon = tested on: COLO 205 colon
DU-145 prostate = tested on: DU-145 prostate
EKVX NSCLC = tested on: EKVX NSCLC
HCC-2998 colon = tested on: HCC-2998 colon
HCT-116 colon = tested on: HCT-116 colon
HCT-15 colon = tested on: HCT-15 colon
HL-60(TB) leukemia = tested on: HL-60(TB) leukemia
HOP-62 NSCLC = tested on: HOP-62 NSCLC
HOP-92 NSCLC = tested on: HOP-92 NSCLC
HS 578T breast = tested on: HS 578T breast
HT29 colon = tested on: HT29 colon
IGROV1 ovarian = tested on: IGROV1 ovarian
K-562 leukemia = tested on: K-562 leukemia
KM12 colon = tested on: KM12 colon
LOX IMVI melanoma = tested on: LOX IMVI melanoma
M14 melanoma = tested on: M14 melanoma
MALME-3M melanoma = tested on: MALME-3M melanoma
MCF7 breast = tested on: MCF7 breast
MDA-MB-231 breast = tested on: MDA-MB-231 breast
MDA-MB-435 = tested on: MDA-MB-435
MDA-N = tested on: MDA-N
MOLT-4 leukemia = tested on: MOLT-4 leukemia
NCI-H226 lung = tested on: NCI-H226 lung
NCI-H23 lung = tested on: NCI-H23 lung
NCI-H460 lung = tested on: NCI-H460 lung
NCI-H522 lung = tested on: NCI-H522 lung
NCI/ADR-RES ovarian = tested on: NCI/ADR-RES ovarian
OVCAR-3 ovarian = tested on: OVCAR-3 ovarian
OVCAR-4 ovarian = tested on: OVCAR-4 ovarian
OVCAR-5 ovarian = tested on: OVCAR-5 ovarian
OVCAR-8 ovarian = tested on: OVCAR-8 ovarian
PC-3 prostate = tested on: PC-3 prostate
RPMI-8226 leukemia = tested on: RPMI-8226 leukemia
RXF 393 renal = tested on: RXF 393 renal
SF-268 CNS = tested on: SF-268 CNS
SF-295 CNS = tested on: SF-295 CNS
SF-539 CNS = tested on: SF-539 CNS
SK-MEL-2 melanoma = tested on: SK-MEL-2 melanoma
SK-MEL-28 melanoma = tested on: SK-MEL-28 melanoma
SK-MEL-5 melanoma = tested on: SK-MEL-5 melanoma
SK-OV-3 ovarian = tested on: SK-OV-3 ovarian
SN12C renal = tested on: SN12C renal
SNB-19 CNS = tested on: SNB-19 CNS
SNB-75 CNS = tested on: SNB-75 CNS
SR leukemia = tested on: SR leukemia
SW-620 colon = tested on: SW-620 colon
T-47D breast = tested on: T-47D breast
TK-10 renal = tested on: TK-10 renal
U251 CNS = tested on: U251 CNS
UACC-257 melanoma = tested on: UACC-257 melanoma
UACC-62 melanoma = tested on: UACC-62 melanoma
UO-31 renal = tested on: UO-31 renal

Q: What does the source list for `COc1ccc(NC2C(=O)C3(C)CCC2C3(C)C)cc1` (stereo not drawn)?
A: TGI (786-0 renal): > 100 µM; TGI (A498 renal): > 100 µM; TGI (A549 NSCLC): > 100 µM; TGI (ACHN renal): > 100 µM; TGI (BT-549 breast): > 100 µM; TGI (CAKI-1 renal): > 100 µM; TGI (CCRF-CEM leukemia): > 100 µM; TGI (COLO 205 colon): > 100 µM; TGI (DU-145 prostate): > 100 µM; TGI (EKVX NSCLC): > 100 µM; TGI (HCC-2998 colon): > 100 µM; TGI (HCT-116 colon): > 100 µM; TGI (HCT-15 colon): > 100 µM; TGI (HL-60(TB) leukemia): > 100 µM; TGI (HOP-62 NSCLC): > 100 µM; TGI (HOP-92 NSCLC): > 100 µM; TGI (HS 578T breast): > 100 µM; TGI (HT29 colon): > 100 µM; TGI (IGROV1 ovarian): > 100 µM; TGI (K-562 leukemia): > 100 µM; TGI (KM12 colon): > 100 µM; TGI (LOX IMVI melanoma): > 100 µM; TGI (M14 melanoma): > 100 µM; TGI (MALME-3M melanoma): > 100 µM; TGI (MCF7 breast): > 100 µM; TGI (MDA-MB-231 breast): > 100 µM; TGI (MDA-MB-435): > 100 µM; TGI (MDA-N): > 100 µM; TGI (MOLT-4 leukemia): > 100 µM; TGI (NCI-H226 lung): > 100 µM; TGI (NCI-H23 lung): > 100 µM; TGI (NCI-H460 lung): > 100 µM; TGI (NCI-H522 lung): > 100 µM; TGI (NCI/ADR-RES ovarian): > 100 µM; TGI (OVCAR-3 ovarian): > 100 µM; TGI (OVCAR-4 ovarian): > 100 µM; TGI (OVCAR-5 ovarian): > 100 µM; TGI (OVCAR-8 ovarian): > 100 µM; TGI (PC-3 prostate): > 100 µM; TGI (RPMI-8226 leukemia): > 100 µM; TGI (RXF 393 renal): > 100 µM; TGI (SF-268 CNS): > 100 µM; TGI (SF-295 CNS): > 100 µM; TGI (SF-539 CNS): > 100 µM; TGI (SK-MEL-2 melanoma): > 100 µM; TGI (SK-MEL-28 melanoma): > 100 µM; TGI (SK-MEL-5 melanoma): 99.8 µM; TGI (SK-OV-3 ovarian): > 100 µM; TGI (SN12C renal): > 100 µM; TGI (SNB-19 CNS): > 100 µM; TGI (SNB-75 CNS): > 100 µM; TGI (SR leukemia): > 100 µM; TGI (SW-620 colon): > 100 µM; TGI (T-47D breast): > 100 µM; TGI (TK-10 renal): > 100 µM; TGI (U251 CNS): > 100 µM; TGI (UACC-257 melanoma): > 100 µM; TGI (UACC-62 melanoma): > 100 µM; TGI (UO-31 renal): > 100 µM

Q: Which results are given for `C=CCN1C(=O)CNC1=S`?
A: TGI (786-0 renal): > 100 µM; TGI (A498 renal): > 100 µM; TGI (A549 NSCLC): > 100 µM; TGI (ACHN renal): > 100 µM; TGI (BT-549 breast): > 100 µM; TGI (CAKI-1 renal): > 100 µM; TGI (CCRF-CEM leukemia): 77.6 µM; TGI (COLO 205 colon): > 100 µM; TGI (DU-145 prostate): > 100 µM; TGI (EKVX NSCLC): > 100 µM; TGI (HCC-2998 colon): > 100 µM; TGI (HCT-116 colon): > 100 µM; TGI (HCT-15 colon): > 100 µM; TGI (HL-60(TB) leukemia): 78.9 µM; TGI (HOP-62 NSCLC): > 100 µM; TGI (HOP-92 NSCLC): > 100 µM; TGI (HS 578T breast): > 100 µM; TGI (HT29 colon): > 100 µM; TGI (IGROV1 ovarian): > 100 µM; TGI (K-562 leukemia): > 100 µM; TGI (KM12 colon): > 100 µM; TGI (LOX IMVI melanoma): > 100 µM; TGI (M14 melanoma): > 100 µM; TGI (MALME-3M melanoma): > 100 µM; TGI (MCF7 breast): > 100 µM; TGI (MDA-MB-231 breast): > 100 µM; TGI (MDA-MB-435): > 100 µM; TGI (MDA-N): > 100 µM; TGI (MOLT-4 leukemia): > 100 µM; TGI (NCI-H226 lung): > 100 µM; TGI (NCI-H23 lung): > 100 µM; TGI (NCI-H460 lung): > 100 µM; TGI (NCI-H522 lung): > 100 µM; TGI (NCI/ADR-RES ovarian): > 100 µM; TGI (OVCAR-3 ovarian): > 100 µM; TGI (OVCAR-4 ovarian): > 100 µM; TGI (OVCAR-5 ovarian): > 100 µM; TGI (OVCAR-8 ovarian): > 100 µM; TGI (PC-3 prostate): > 100 µM; TGI (RPMI-8226 leukemia): > 100 µM; TGI (RXF 393 renal): > 100 µM; TGI (SF-268 CNS): > 100 µM; TGI (SF-295 CNS): > 100 µM; TGI (SF-539 CNS): > 100 µM; TGI (SK-MEL-2 melanoma): > 100 µM; TGI (SK-MEL-28 melanoma): > 100 µM; TGI (SK-MEL-5 melanoma): > 100 µM; TGI (SK-OV-3 ovarian): > 100 µM; TGI (SN12C renal): > 100 µM; TGI (SNB-19 CNS): > 100 µM; TGI (SNB-75 CNS): > 100 µM; TGI (SR leukemia): > 100 µM; TGI (SW-620 colon): > 100 µM; TGI (T-47D breast): > 100 µM; TGI (TK-10 renal): > 100 µM; TGI (U251 CNS): > 100 µM; TGI (UACC-257 melanoma): > 100 µM; TGI (UACC-62 melanoma): > 100 µM; TGI (UO-31 renal): > 100 µM
